Measured values published in the supplement of paper PMC10307832.

What was measured:
Assay in all cases: relative viability (nuclei count vs DMSO), 5 days (fraction); higher = more cells survive
17-AAG + Lapatinib = compound: C=CCNC1=C2C[C@@H](C)C[C@H](OC)[C@H](O)[C@@H](C)/C=C(\C)[C@H](OC(N)=O)[C@@H](OC)/C=C\C=C(/C)C(=O)NC(=CC1=O)C2=O [17-AAG] + CS(=O)(=O)CCNCc1ccc(-c2ccc3ncnc(Nc4ccc(OCc5cccc(F)c5)c(Cl)c4)c3c2)o1 [Lapatinib] (partner 2 µM)
Outline: (§1)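 Nuclei were stained with Hoechst during a one-step fixation (final 0.05% Triton X-100, 1% formaldehyde, 1 ug/ml Hoechst) carried out 5 days after dosing, then counted on 4× images. The cells, lung cancer lines in 1536-well plates, had been dosed by pin tool the day after seeding with one drug alone or a fixed anchor-drug dose plus five library-drug doses (not always all listed) in √10 steps. Relative viability is the nuclei count in treated wells divided by that in vehicle wells, and each value is the median of duplicate plates.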

17-AAG + Decitabine = compound: C=CCNC1=C2C[C@@H](C)C[C@H](OC)[C@H](O)[C@@H](C)/C=C(\C)[C@H](OC(N)=O)[C@@H](OC)/C=C\C=C(/C)C(=O)NC(=CC1=O)C2=O [17-AAG] + Nc1ncn([C@H]2C[C@H](O)[C@@H](CO)O2)c(=O)n1 [Decitabine] (partner 2 µM)
Outline: as §1

17-AAG + Bortezomib = compound: C=CCNC1=C2C[C@@H](C)C[C@H](OC)[C@H](O)[C@@H](C)/C=C(\C)[C@H](OC(N)=O)[C@@H](OC)/C=C\C=C(/C)C(=O)NC(=CC1=O)C2=O [17-AAG] + CC(C)C[C@H](NC(=O)[C@H](Cc1ccccc1)NC(=O)c1cnccn1)B(O)O [Bortezomib] (partner 0.002 µM)
Outline: as §1

17-AAG + AZD7762 = compound: C=CCNC1=C2C[C@@H](C)C[C@H](OC)[C@H](O)[C@@H](C)/C=C(\C)[C@H](OC(N)=O)[C@@H](OC)/C=C\C=C(/C)C(=O)NC(=CC1=O)C2=O [17-AAG] + NC(=O)Nc1cc(-c2cccc(F)c2)sc1C(=O)N[C@H]1CCCNC1 [AZD7762] (partner 0.2 µM)
Outline: as §1

Row | Cell Line | relative viability (17-AAG + Lapatinib; first compound 0.00128 µM) | relative viability (17-AAG + Lapatinib; first compound 0.004048 µM) | relative viability (17-AAG + Lapatinib; first compound 0.0128 µM) | relative viability (17-AAG + Lapatinib; first compound 0.04048 µM) | relative viability (17-AAG + Lapatinib; first compound 0.128 µM) | relative viability (17-AAG + Decitabine; first compound 0.00128 µM) | relative viability (17-AAG + Decitabine; first compound 0.004048 µM) | relative viability (17-AAG + Decitabine; first compound 0.0128 µM) | relative viability (17-AAG + Decitabine; first compound 0.04048 µM) | relative viability (17-AAG + Decitabine; first compound 0.128 µM) | relative viability (17-AAG + Bortezomib; first compound 0.00128 µM) | relative viability (17-AAG + Bortezomib; first compound 0.004048 µM) | relative viability (17-AAG + Bortezomib; first compound 0.0128 µM) | relative viability (17-AAG + Bortezomib; first compound 0.04048 µM) | relative viability (17-AAG + Bortezomib; first compound 0.128 µM) | relative viability (17-AAG + AZD7762; first compound 0.00128 µM) | relative viability (17-AAG + AZD7762; first compound 0.004048 µM) | relative viability (17-AAG + AZD7762; first compound 0.0128 µM) | relative viability (17-AAG + AZD7762; first compound 0.04048 µM) | relative viability (17-AAG + AZD7762; first compound 0.128 µM)
1 | 201T | 1 | 1.04 | 0.991 | 0.999 | 0.512 | 0.842 | 0.838 | 0.811 | 0.804 | 0.71 | 1.14 | 1.12 | 1.03 | 1.05 | 0.649 | 0.626 | 0.543 | 0.459 | 0.258 | 0.261
2 | A549 | 0.99 | 0.548 | 0.129 | 0.0692 | 0.0593 | 0.123 | 0.271 | 0.128 | 0.0399 | 0.0274 | – | – | – | – | – | – | – | – | – | –
3 | A-427 | 1.04 | 1.12 | 1.05 | 1.12 | 0.607 | 0.55 | 0.528 | 0.561 | 0.395 | 0.306 | 1.01 | 1.05 | 0.965 | 0.921 | 0.625 | 0.819 | 0.798 | 0.618 | 0.268 | 0.234
4 | ABC-1 | 0.968 | 1.03 | 1.06 | 1.54 | 1.12 | 1.08 | 1.16 | 1.24 | 1.2 | 0.666 | 0.356 | 0.348 | 0.355 | 0.287 | 0.246 | 0.902 | 0.726 | 0.844 | 0.835 | 0.498
5 | BEN | 0.859 | 0.726 | 0.727 | 0.405 | 0.204 | 0.613 | 0.712 | 0.759 | 0.446 | 0.288 | 0.917 | 1.14 | 0.997 | 0.64 | 0.232 | 0.692 | 0.891 | 0.648 | 0.5 | 0.392
6 | CAL-12T | 0.645 | 0.598 | 0.611 | 0.527 | 0.334 | – | – | – | – | – | 1.11 | 0.899 | 0.904 | 0.726 | 0.469 | 0.655 | 0.553 | 0.608 | 0.393 | 0.233
7 | COR-L23 | 0.769 | 0.82 | 1.06 | 0.852 | 0.169 | 0.328 | 0.52 | 0.432 | 0.351 | 0.138 | 1.12 | 0.948 | 0.946 | 0.408 | 0.0841 | – | – | – | – | –
8 | COR-L 105 | 0.352 | 0.333 | 0.344 | 0.406 | 0.306 | 0.655 | 0.701 | 0.699 | 0.484 | 0.504 | 0.548 | 0.729 | 0.746 | 0.581 | 0.507 | – | – | – | – | –
9 | Calu-6 | 1.03 | 1.01 | 0.861 | 0.323 | 0.135 | – | – | – | – | – | 1.06 | 0.92 | 0.896 | 0.317 | 0.183 | – | – | – | – | –
10 | ChaGo-K-1 | – | – | – | – | – | 0.444 | 0.55 | 0.491 | 0.514 | 0.428 | 1.01 | 0.971 | 0.981 | 0.304 | 0.297 | 0.843 | 0.871 | 0.861 | 0.449 | 0.217
11 | EKVX | 0.223 | 0.218 | 0.197 | 0.0769 | 0.12 | 0.351 | 0.284 | 0.257 | 0.162 | 0.139 | 1.06 | 0.971 | 0.994 | 0.421 | 0.149 | 0.817 | 0.726 | 0.669 | 0.435 | 0.162
12 | IA-LM | 1.06 | 0.736 | 0.479 | 0.502 | 0.0825 | – | – | – | – | – | 0.886 | 0.604 | 0.766 | 0.326 | 0.0846 | – | – | – | – | –
13 | LCLC-103H | – | – | – | – | – | 0.757 | 0.715 | 0.731 | 0.812 | 0.797 | 1.02 | 1.17 | 1.02 | 1.13 | 1.09 | 0.756 | 0.755 | 0.742 | 0.834 | 0.835
14 | LK-2 | 1.04 | 1.01 | 0.752 | 0.464 | 0.158 | 0.269 | 0.37 | 0.187 | 0.0931 | 0.0957 | – | – | – | – | – | 0.481 | 0.522 | 0.149 | 0.115 | 0.0799
15 | NCI-H358 | 0.504 | 0.324 | 0.162 | 0.137 | 0.121 | 0.198 | 0.141 | 0.0682 | 0.0758 | 0.062 | – | – | – | – | – | 0.522 | 0.381 | 0.132 | 0.142 | 0.139
16 | NCI-H441 | – | – | – | – | – | 0.275 | 0.219 | 0.121 | 0.118 | 0.137 | 0.506 | 0.395 | 0.199 | 0.181 | 0.14 | 1.07 | 1.02 | 0.669 | 0.118 | 0.108
17 | NCI-H520 | 0.797 | 0.654 | 0.396 | 0.132 | 0.112 | 0.364 | 0.555 | 0.411 | 0.16 | 0.171 | 0.512 | 0.58 | 0.251 | 0.14 | 0.0925 | – | – | – | – | –
